Data taken from US7053178B2, “Synthetic peptides and kits for diagnosis of anti-phospholipid syndrome” (Yeda Research Development Co., LTD, priority 1998, dated 2006).
Where no end group is shown, it is not given here.

Key:
anti-β2GPI ILA-3 mAb [1] = assay: Competition ELISA: inhibition of ILA-3 mAb binding to β2GPI; set-up: species or system human; settings: 10 μM peptide concentration
Procedure: (§1) FIGS. 1A–1C are graphs showing inhibition of the anti-β2GPI ILA-1, ILA-3 and G-3 mAbs binding to β2GPI by competition assays using increasing concentrations of the inhibitory monomer peptides A, B and C, respectively, and of unrelated peptide D as control. The percent of inhibition was calculated as follows: % inhibition=O.D control−O.D with inhibitor/O.D control×100. Each point represents mean±SD of three different experiments.
(e) Inhibition of anti-β2GPI mAb binding to β2GPI by the inhibitory peptides. For competition ELISA tests, the anti-β2GPI mAbs (10 μg/ml) were preincubated (overnight at 4° C.) with varying concentrations of the peptides. The competition reaction was then transferred to β2GPI-coated γ-irradiated ELISA plates (Nunc), and the assay continued as described above. The percentage of inhibition was calculated as follows: % inhibition=O.D control −O.D with inhibitor/O.D control×100.
(2a) The specificity of interaction of the mAbs with the corresponding synthetic peptides A, B, C and control peptide D as monomers, was assessed by inhibition experiments as described in Materials and Methods, sections (e) and (f).

anti-β2GPI ILA-3 mAb [2] = assay: Cyto-ELISA: inhibition of ILA-3 mAb binding to HUVEC; set-up: species or system human; settings: peptide concentration of 10 μM
Procedure: as §1, with “FIGS. 2A–2C” for “FIGS. 1A–1C”, “to human umbilical vein endothelial cells (HUVEC)” for “to β2GPI”, “as in FIG. 1 above.” for “as follows: % inhibition=O.D control−O.D with inhibitor/O.D control×100.”
(f) Anti-β2GPI mAb binding to endothelial cells in the presence of the inhibitory peptides. Human umbilical vein endothelial cells (HUVEC) were isolated as previously described and cultured under standard conditions (Jaffe et al., 1973). Briefly, umbilical cords were treated with collagenase (0.2% from Clostridium histolyticum, Boehringer) for 20 min at 37° C., cells were cultured in medium 199 with 20% FCS, 10 μg/ml growth supplement, 100 μg/ml heparin and antibiotics (streptomycin, penicillin), and used at passages 1–2 for plating onto gelatin-coated 96-well plates. Cyto-ELISA was performed as detailed before (Jaffe et al., 1973). Briefly, mAbs at different concentrations were added to HUVEC confluent wells, previously coated with 10 μg/ml β2GPI for 2 hours and fixed with 0.1% glutaraldehyde. The bound mAb was detected by further 1-hour incubation with alkaline phosphatase-conjugated goat anti-human IgM. […]

[3] = system: experimental APS induced by anti-β2GPI mAb ILA-3; assay: Murine experimental APS induced by ILA-3 mAb; format: in vivo, BALB/c mice; settings: mice infused with ILA-3 mAb, peptide 40 μg/mouse daily 3 days, day 15
Procedure: (i) Mice: Female BALB/c mice, aged 10–12 weeks, were purchased from Tel-Aviv University Animal House, Israel. The females were caged overnight with BALB/c males and examined for vaginal plug next morning. The presence of the plug was considered as day 0 of pregnancy in all the studied groups. (j) Induction of murine experimental APS. Mice were infused intravenously with 20 μg of each one of the anti-β2GPI ILA-1, ILA-3, and G-3 mAbs at day 0 (the day at which a vaginal plug was observed following mating) (Blank et al., 1991), 6 hours later the mice received daily 40 μg/mouse of the tested peptides during 3 days. The mice were bled and sacrificed on day 15 of pregnancy. Fetal resorptions, activated partial thromboplastin time and platelet counts (markers of the APS-equivalent in mice) were determined as described (Blank et al., 1991). Significant fetal loss, thrombocytopenia and prolonged activated thromboplastin time (aPTT) were induced in naive mice following passive intravenous administration of the three anti-β2GPI mAbs ILA-1, ILA-3 and G-3, as described in Materials and Methods, section (j). The clinical manifestations of the experimental APS were prevented by infusion of the specific peptide monomers A, B, C which were delivered to the mice with the corresponding pathogenic anti-β2GPI mAbs, as shown in Table 2. […] Similarly, mice which were preinfused with control IgM and received a cocktail of the peptide monomers (A+B+C), were not affected.

## KDKATFGTHDG [Peptide B]
anti-β2GPI ILA-3 mAb [1]
  inhibition of ILA-3 mAb binding to β2GPI: 77%
anti-β2GPI ILA-3 mAb [2]
  inhibition of ILA-3 mAb binding to HUVEC: 72%
[3]
  % Fetal loss (Resorbed fetuses/Total fetuses): 6 ± 2%
  Platelet count: 1137 cells/mm^3 × 10^−3
  aPTT (activated partial thromboplastin time): 27 ± 2 s
[3]; listed as peptide B
  aPTT (activated partial thromboplastin time): 27 ± 2 s
